{"source": "paper PMC9964319", "about": "“Half-Sandwich Rhodium Complexes with Releasable N-Donor Monodentate Ligands: Solution Chemical Properties and the Possibility for Acidosis Activation” (Pharmaceutics, 2023)", "key": {"[1]": {"system": "Colo320 human colon adenocarcinoma cell line (doxorubicin-resistant)", "experiment": "MTT assay, cytotoxicity at pH 6 and 7", "type": "cell-based", "settings": "Colo320, 72 h incubation, read-out: IC50", "experimental": "(§1) All cell culture reagents were obtained from Sigma-Aldrich (Merck KGaA, Darmstadt, Germany) and plasticware from Sarstedt (Nümbrecht, Germany). Human colonic adenocarcinoma cell lines Colo205 (catalog number: ATCC-CCL-222) and its doxorubicin-resistant counterpart Colo320 (catalog number: ATCC-CCL-220.1) were purchased from LGC Promochem (Teddington, UK). The cells were cultured in RPMI 1640 medium supplemented with 10% heat-inactivated fetal bovine serum, 2 mM L-glutamine, 1 mM sodium pyruvate, and 100 mM HEPES buffer, adjusting the pH to 6.0 or 7.0. The cells were incubated at 37 °C in a 5% CO2–95% air atmosphere. The semiadherent human colon cancer cells were detached with Trypsin-Versene solution for 5 min at 37 °C.\n(§2) The solutions were freshly prepared prior to measurements (see Section 2.1). […] Firstly, these samples were diluted in complete culture medium; then, two-fold serial dilutions of the compounds were prepared in 100 μL of RPMI 1640, horizontally. The semiadherent colonic adenocarcinoma cells were treated with Trypsin-Versene solution. They were adjusted to a density of 1 × 10^4 cells in 100 μL of RPMI 1640 medium and were added to each well, with the exception of the medium control wells. The final volume of the wells containing compounds and cells was 200 μL. Samples were triplicated. The pH of the medium was adjusted to 6.0 or 7.0.\n(§3) The culture plates were incubated at 37 °C for 72 h; at the end of the incubation period, 20 μL of MTT solution (from a stock solution of 5 mg/mL) was added to each well. After incubation at 37 °C for 4 h, 100 μL of SDS solution (10% in 0.01 M HCI) was added to each well, and the plates were further incubated at 37 °C overnight. Cell growth was determined by measuring the optical density (OD) at 540/630 nm with a Multiscan EX ELISA reader (Thermo Labsystems, Cheshire, WA, USA). […] Curves were fitted using GraphPad Prism software (2022, version 9.4.1, Graphpad Software (LLC) d.b.a Dotmatics, San Diego, CA, USA) using the sigmoidal dose–response model (comparing variable and fixed slopes).\n(§4) The pH-dependent solution speciation of the selected mixed-ligand complexes is an important feature in the hypothesized mechanism of action, and the modeling of acidosis is necessary for the in vitro anticancer assays. In order to find out the cytotoxicity difference based on the pH of the medium, cytotoxic activity was determined at pH 6 and 7 by MTT assay in two human colon adenocarcinoma cell lines (doxorubicin-sensitive Colo205 and doxorubicin-resistant Colo320). […] The mixed-ligand complexes were prepared prior to the measurements, as was already described in Section 2.1. With this method, the effect of the different counter ions could be avoided, and a more adequate comparison of the mixed-ligand complexes could be conducted."}, "[2]": {"system": "Colo205 human colon adenocarcinoma cell line (doxorubicin-sensitive)", "experiment": "MTT assay, cytotoxicity at pH 6 and 7", "type": "cell-based", "settings": "Colo205, 72 h incubation, read-out: IC50", "experimental": "as §1, §2, §3, §4"}, "[3]": {"system": "E. coli ATCC 25922 (sensitive)", "experiment": "Antibacterial assay, MIC in 96-well plates at different pH", "type": "cell-based", "from_the_text": "(§5) The antibacterial effect was studied in two Gram-positive and in two Gram-negative strains. The Gram-positive S. aureus ATCC 25923 (ATCC, Manassas, VA, USA) is a methicillin-susceptible reference bacterial strain, while S. aureus 272123 is a clinical isolate and resistant to methicillin and ofloxacin (MRSA), which was given by Prof. Dr. Leonard Amaral (Institute of Hygiene and Tropical Medicine, Lisbon, Portugal). The Gram-negative strains were E. coli ATCC 25922 (ATCC, Manassas, VA, USA), which is sensitive to antibiotics, and E. coli 32313 (provided by the Institute of Clinical Microbiology, University of Szeged, Hungary), which is resistant to different antibiotics (trimethoprim/sulfamethoxazole, gentamicin, ciprofloxacin, and norfloxacin).\n(§6) The minimum inhibitory concentrations (MICs) of the compounds were determined in 96-well plates based on the Clinical and Laboratory Standard Institute guidelines. The compounds were diluted in 100 μL of Mueller Hinton broth. Then, an overnight bacterial culture diluted 10,000 times in 100 μL of medium was added to each well, with the exception of the medium control wells. For each strain and each tested compound, four pH values were set (5, 6, 7, and 8). Each sample was triplicated."}, "[4]": {"system": "S. aureus ATCC 25923 (methicillin-susceptible)", "experiment": "Antibacterial assay, MIC in 96-well plates at different pH", "type": "cell-based", "from_the_text": "as §5, §6"}, "[5]": {"system": "S. aureus 272123 (MRSA)", "experiment": "Antibacterial assay, MIC in 96-well plates at different pH", "type": "cell-based", "from_the_text": "as §5, §6"}, "[6]": {"system": "E. coli 32313 (resistant)", "experiment": "Antibacterial assay, MIC in 96-well plates at different pH", "type": "cell-based", "from_the_text": "as §5, §6"}, "[7]": {"experiment": "Formation constants of mixed-ligand half-sandwich complexes (UV-vis and 1H NMR)", "type": "physicochemical", "settings": "for Formation constant logK of mixed-ligand complex: aqua complex + monodentate ligand, I = 0.10 M (KCl), t = 25.0 °C, UV-vis and 1H NMR; for formation of the mixed-ligand complex: under the applied conditions, 1H NMR, limit of detection 5%", "experimental": "NMR spectroscopic studies were carried out on a Bruker Avance III HD Ascend 500 Plus instrument. For the aqueous samples, ^1H NMR spectra were recorded with the WATERGATE water suppression pulse scheme using DSS internal standard. The highest peak of DSS was 0.00 ppm. The measurement was very similar to the UV-vis measurement since the complex–to–monodentate ligand ratio was also between 0–10 equivalents; the spectra were recorded after the given waiting time. […] This technique was useful in those cases where no spectral change was visible during the UV-vis titrations.\nIn both measurement methods, the formation constant (K) was obtained using the computer program PSEQUAD [38].\nIt is worthwhile to mention that the liberation of the bidentate ligand was not detected even at higher monodentate ligand excess (~10), which means that the disruption of the bond between the bidentate ligand and the metal center is not feasible under these conditions. The calculated formation constants are compared in Figure 5 and are collected in Table S2. The formation of the mixed-ligand complexes was not detected in three cases under the applied conditions, namely [Ru(p-cym)(en)(mim)]^2+, [Ru(p-cym)(phen)(mim)]^2+, and [Ru(p-cym)(en)(Py)]^2+. For these complexes, only a higher limit of the formation constant could be given, assuming that a maximum of 5% of the complex would form (limit of detection) under the conditions used for ^1H NMR spectroscopy. Based on Figure 5, the following trends are observed in the formation constants: (i) [RhCp*(en)(H2O)]^2+ and [RhCp*(phen)(H2O)]^2+ have a stronger monodentate ligand-binding ability than the Ru(p-cym) analogs; (ii) the formation constants of the [Ru(p-cym)(8HQH-1)(N)]^+ complexes are similar or somewhat higher than those of the RhCp* analogs; (iii) a stability trend for the monodentate ligand: mim > bim > Py (iv) and the bidentate ligand: 8HQH-1 > phen ≥ en can be seen."}}, "note": "Read-outs that look alike come from different tables or passages of the source.", "data": [{"smiles": "Cc1c(C)c(C)[c-](C)c1C.[Cl-].[Cl-].[Rh+3].c1cnc2c(c1)ccc1cccnc12", "note": "[[RhCp*(phen)Cl]Cl]", "values": [{"measurement": "IC50", "setting": "[1]; pH 6", "result": "> 100", "unit": "µM"}, {"measurement": "IC50", "setting": "[1]; pH 7", "result": "> 100", "unit": "µM"}, {"measurement": "IC50", "setting": "[2]; pH 6", "result": "> 100", "unit": "µM"}, {"measurement": "IC50", "setting": "[2]; pH 7", "result": "> 100", "unit": "µM"}, {"measurement": "MIC", "setting": "[3]; E. coli sensitive, pH 5, after one day, read-out: MIC", "result": "> 100", "unit": "µM"}, {"measurement": "MIC", "setting": "[3]; E. coli sensitive, pH 6, after one day, read-out: MIC", "result": ">100", "unit": "µM"}, {"measurement": "MIC", "setting": "[3]; E. coli sensitive, pH 7, after one day, read-out: MIC", "result": ">100", "unit": "µM"}, {"measurement": "MIC", "setting": "[3]; E. coli sensitive, pH 8, after one day, read-out: MIC", "result": "> 100", "unit": "µM"}, {"measurement": "MIC", "setting": "[3]; any of the bacterial strains, E. coli, read-out: MIC (no antibacterial effect)", "result": "> 100", "unit": "µM"}, {"measurement": "MIC", "setting": "[4]; S. aureus sensitive, pH 7, after one day, read-out: MIC", "result": ">100", "unit": "µM"}, {"measurement": "MIC", "setting": "[4]; S. aureus sensitive, pH 8, after one day, read-out: MIC", "result": "> 100", "unit": "µM"}, {"measurement": "MIC", "setting": "[4]; any of the bacterial strains, S. aureus, read-out: MIC (no antibacterial effect)", "result": "> 100", "unit": "µM"}, {"measurement": "MIC", "setting": "[5]; any of the bacterial strains, read-out: MIC (no antibacterial effect)", "result": "> 100", "unit": "µM"}, {"measurement": "MIC", "setting": "[5]; pH 5, after one day, read-out: MIC", "result": "> 100", "unit": "µM"}, {"measurement": "MIC", "setting": "[5]; pH 6, after one day, read-out: MIC", "result": ">100", "unit": "µM"}, {"measurement": "MIC", "setting": "[5]; pH 7, after one day, read-out: MIC", "result": ">100", "unit": "µM"}, {"measurement": "MIC", "setting": "[5]; pH 8, after one day, read-out: MIC", "result": "> 100", "unit": "µM"}, {"measurement": "MIC", "setting": "[6]; E. coli resistant, pH 5, after one day, read-out: MIC", "result": "> 100", "unit": "µM"}, {"measurement": "MIC", "setting": "[6]; E. coli resistant, pH 6, after one day, read-out: MIC", "result": ">100", "unit": "µM"}, {"measurement": "MIC", "setting": "[6]; E. coli resistant, pH 7, after one day, read-out: MIC", "result": ">100", "unit": "µM"}, {"measurement": "MIC", "setting": "[6]; E. coli resistant, pH 8, after one day, read-out: MIC", "result": "> 100", "unit": "µM"}, {"measurement": "MIC", "setting": "[6]; any of the bacterial strains, resistant E. coli, read-out: MIC (no antibacterial effect)", "result": "> 100", "unit": "µM"}]}, {"smiles": "Cc1ccc(C(C)C)cc1.NCCN.[Ru+2].c1ccncc1", "note": "[[Ru(p-cym)(en)(Py)]^2+]", "values": [{"measurement": "Formation constant logK of mixed-ligand complex", "setting": "[7]", "result": "< 1.5"}, {"measurement": "formation of the mixed-ligand complex", "setting": "[7]", "result": "not detected"}]}, {"smiles": "Cc1ccc(C(C)C)cc1.Cn1ccnc1.NCCN.[Ru+2]", "note": "[[Ru(p-cym)(en)(mim)]^2+]", "values": [{"measurement": "formation of the mixed-ligand complex", "setting": "[7]", "result": "not detected"}]}, {"smiles": "Cc1ccc(C(C)C)cc1.Cn1ccnc1.[Ru+2].c1cnc2c(c1)ccc1cccnc12", "note": "[[Ru(p-cym)(phen)(mim)]^2+]", "values": [{"measurement": "formation of the mixed-ligand complex", "setting": "[7]", "result": "not detected"}]}, {"smiles": "Cc1ccc(C(C)C)cc1.[Ru+][O]c1cccc2cccnc12.c1ccncc1", "note": "[[RuCym(8HQH-1)(H2O)]+ + Py]", "values": [{"measurement": "Formation constant logK of mixed-ligand complex", "setting": "[7]", "result": "1.6 ± 0.2"}]}, {"smiles": "Cc1ccc(C(C)C)cc1.[Ru+][O]c1cccc2cccnc12.c1ccc2[nH]cnc2c1", "note": "[[RuCym(8HQH-1)(H2O)]+ + bim]", "values": [{"measurement": "Formation constant logK of mixed-ligand complex", "setting": "[7]", "result": "2.9 ± 0.1"}]}, {"smiles": "Cc1ccc(C(C)C)cc1.NCCN.[Ru+2].c1ccc2[nH]cnc2c1", "note": "[[RuCym(en)(H2O)]2+ + bim]", "values": [{"measurement": "Formation constant logK of mixed-ligand complex", "setting": "[7]", "result": "3.5 ± 0.1"}]}]}
